Source: PubChem BioAssay (NCI)
Several values for one entry are separate records, joined by “and”; a condition that tells them apart may be missing. Equal entries are not always repeated.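 Assay format: 96-well plates, 48-hour exposure. GI50 is the concentration that inhibits growth by half. TGI marks complete inhibition of growth.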

Legend:
Experiment in all cases: DTP human tumour cell line panel, 48 h
KM12 colon = system: KM12 colon
UO-31 renal = system: UO-31 renal
EKVX NSCLC = system: EKVX NSCLC
ACHN renal = system: ACHN renal
IGROV1 ovarian = system: IGROV1 ovarian
DU-145 prostate = system: DU-145 prostate
HOP-62 NSCLC = system: HOP-62 NSCLC
UACC-62 melanoma = system: UACC-62 melanoma
MDA-MB-231 breast = system: MDA-MB-231 breast
RXF 393 renal = system: RXF 393 renal

| SMILES | TGI (KM12 colon) | GI50 (UO-31 renal) | TGI (UO-31 renal) | GI50 (EKVX NSCLC) | TGI (EKVX NSCLC) | GI50 (ACHN renal) | TGI (ACHN renal) | GI50 (IGROV1 ovarian) | TGI (IGROV1 ovarian) | GI50 (DU-145 prostate) | TGI (DU-145 prostate) | GI50 (HOP-62 NSCLC) | TGI (HOP-62 NSCLC) | GI50 (UACC-62 melanoma) | TGI (UACC-62 melanoma) | GI50 (MDA-MB-231 breast) | TGI (MDA-MB-231 breast) | GI50 (RXF 393 renal) | TGI (RXF 393 renal) | GI50 (KM12 colon) |
| --- | --- | --- | --- | --- | --- | --- | --- | --- | --- | --- | --- | --- | --- | --- | --- | --- | --- | --- | --- | --- |
| O=C(CN1CCN(c2ncnc3ccccc23)CC1)Nc1ccc(Cl)cc1C(=O)c1ccccc1Cl | 5.08 µM | 1.87 µM | 12.6 µM | 2.74 µM | 7.27 µM | 1.67 µM | 18.7 µM | 1.7 µM | 14.4 µM | 0.368 µM | 12 µM | 0.626 µM | 6.07 µM | 0.579 µM | 1.5 µM | 0.387 µM | 3.62 µM | 0.61 µM | 1.31 µM | – |
| C1=Cc2ccccc2Nc2ccccc21 | > 100 µM | > 100 µM | > 100 µM | 50 µM | > 100 µM | > 100 µM | > 100 µM | > 100 µM | > 100 µM | > 100 µM | > 100 µM | > 100 µM | > 100 µM | > 100 µM | > 100 µM | > 100 µM | > 100 µM | > 100 µM | > 100 µM | > 100 µM |
| O=c1c2cccc(Cl)c2sc2c(NCCCNCCO)nc3ccccc3c12 | 3.73 µM | 1.02 µM | 3.95 µM | 3.4 µM | 17.5 µM | 1.44 µM | 2.8 µM | 0.941 µM | 6.86 µM | 1.98 µM | 4.85 µM | 2.87 µM | 17.1 µM | 1.65 µM | 3.15 µM | 1.4 µM | 3.54 µM | 1.69 µM | 4 µM | 1.87 µM |
| O=C(Nc1ccccc1O)c1cccc(NC2=C(Cl)C(=O)N(Cc3ccccc3)C2=O)c1 | 26.6 µM | 8.53 µM | 25.1 µM | 15.1 µM | 28.8 µM | 4.73 µM | 15.7 µM | 2.87 µM | 8.65 µM | 7.07 µM | 20.6 µM | 7.98 µM | 20.6 µM | 2.33 µM | 6.79 µM | 1.89 µM | 7.53 µM | 1.89 µM | 5.28 µM | 12.9 µM |
| CC[C@@H](C(=O)[C@@H](C)[C@@H](O)[C@H](C)[C@@H]1O[C@@H]([C@@H](CC)C(=O)O)CC[C@@H]1C)C1O[C@]2(C=CC(=O)[C@]3(CC[C@@](C)([C@H]4CC[C@](O)(CC)[C@H](C)O4)O3)O2)[C@H](C)C[C@@H]1C (stereo partly specified) | 6 µM | 1.19 µM | 11 µM | 0.538 µM | 18.7 µM | 1.33 µM | 14.9 µM | 2.44 µM | 20.4 µM | 1.43 µM | 18 µM | 0.334 µM | 18.3 µM | 1.29 µM | 2.67 µM | 0.854 µM | 6.01 µM | 0.0416 µM | 1.79 µM | 0.515 µM |
| CC(C)(C)NC(C1=CC(C)(C)c2ccccc2C1=O)c1ccccc1 (stereo unspecified) | 2.73 µM | 1.18 µM | 2.45 µM | 1.67 µM | 4.61 µM | 1.49 µM | 2.82 µM | 1.52 µM | 4.87 µM | 1.55 µM | 3.24 µM | 2.16 µM | 4.84 µM | 1.3 µM | 2.82 µM | 1.58 µM | 3.45 µM | 1.22 µM | 2.53 µM | 1.42 µM |
| CCN(CC)CCCC(C)Nc1cnc(C(=O)Nc2ccc(Cl)c3cccnc23)cn1 (stereo unspecified) | 13.3 µM | 1.48 µM | 2.9 µM | 3.98 µM | 17.2 µM | 1.73 µM | 3.31 µM | 1.62 µM | 4.11 µM | 4.12 µM | 15.8 µM | 1.77 µM | 3.61 µM | 1.85 µM | 3.43 µM | 1.68 µM | 3.76 µM | 1.64 µM | 3.36 µM | 3.79 µM |
| CCC(C)(C)C(=O)O[C@H]1C[C@@H](C)C=C2C=C[C@H](C)[C@H](CC[C@@H]3C[C@@H](O)CC(=O)O3)[C@H]21 | 24.1 µM and > 30 µM | 2.85 µM | 14.7 µM and 10.1 µM | 2.78 µM | 19.3 µM and > 30 µM | 0.882 µM | 10.3 µM and 2.38 µM | 2.08 µM | 13.2 µM and 4.5 µM | 12.1 µM | 24.6 µM | 7.37 µM | 20.3 µM and > 30 µM | 0.578 µM | – | 0.224 µM | 0.732 µM | 2.06 µM | 8.5 µM and 2.48 µM | 11.2 µM |
| COc1ccc2c(c1)C(=O)/C(=C/c1cccc(OCC(=O)Nc3nc4c(s3)CCCC4)c1)O2 | 4.09 µM | 0.0544 µM | 0.101 µM | 2.52 µM | 8.73 µM | 1.47 µM | 2.79 µM | < 0.0153 µM | 0.054 µM | 0.499 µM | 1.22 µM | 0.29 µM | 10.4 µM | 5.23 µM | 18.4 µM | 1.18 µM | 5.38 µM | 0.583 µM | 1.58 µM | 0.72 µM |
| COC(=O)NC1C(C)OC(OC2C/C=C(/C)C3C=CC4C(OC5CC(OC6CC(O)C(OC7CC(O)C(OC)C(C)O7)C(C)O6)C(O)C(C)O5)C(C)CC(C)C4C3(C)/C(O)=C3\C(=O)OC4(CC(C)C(CO)=CC4/C=C\2C)C3=O)CC1(C)[N+](=O)[O-] (stereo unspecified) | 16.6 µM and 25.2 µM | 14.4 µM | 50 µM and 34.3 µM | 16.7 µM | 50 µM and 19.3 µM | 14.8 µM | 35.5 µM and 30.6 µM | 12.7 µM | 34 µM and 28.5 µM | – | 27.5 µM | 9.62 µM | 18.4 µM and 46.3 µM | 9.44 µM | 16.7 µM and 18.4 µM | – | 36 µM | 8.97 µM | 21.4 µM and 30.7 µM | 9.15 µM |
| CC(=O)N1N=C2/C(=C/c3ccccc3)CC(C)CC2C1c1ccccc1 (stereo unspecified) | 33.9 µM | 12.8 µM | 31.1 µM | 11.9 µM | 27.3 µM | 13 µM | 26.8 µM | 12.1 µM | 41.9 µM | 16.1 µM | 33.5 µM | 16.6 µM | 32.6 µM | 12.6 µM | 26 µM | 14.2 µM | 31.8 µM | 25.6 µM | > 100 µM | 12.4 µM |
| CC1=C[C@H]2c3c(c(O)c(O)c4oc5c(C)cccc5c(=O)c34)[C@H](c3cc(O)c(O)c4oc5c(C)cccc5c(=O)c34)[C@H]2C(C)(C)C1 | 8.33 µM | 1.23 µM | 2.78 µM | 2.34 µM | 11 µM | 2.31 µM | 10.7 µM | 1.39 µM | 5.69 µM | 3.13 µM | 14.9 µM | 1.15 µM | 3.44 µM | 1.6 µM | 3.27 µM | 2.88 µM | 14.6 µM | 1.22 µM | 3.26 µM | 2.56 µM |
